For assay [1], the system named is Alzheimer's Disease. Briefly: Alzheimer's disease patients scored by MMSE and ADAScog. Type of assay: in vivo, human. Conditions: average values per group. The procedure:
In the first control group, the patients received conventional therapy, i.e., a reversible, noncompetitive glutamate receptors antagonist Memantine (10 mg per day). In the second control group the patients received placebo. Test group #4, and Test group #5 received compositions #4 and 5, respectively, in the form of extended release sublingual tablets (also comprising 12% hypromellose; 10% lactose monohydrate; 60% carbopol; 8% Polycarbophil; 10% starch-based gel) used 2 time a day. The patients were scored according to MMSE (Mini-Mental State Examination) and ADAScog (assessment of cognitive impairment) scales. 12 groups of 4 people were formed.

Assay [2] deals with colon cancer. Briefly: Azoxymethane colon cancer model in rats after total colectomy: recurrences, metastases, survival. Type of assay: in vivo, male albino Wistar rats. The protocol:
The studies were performed in male albino Wistar rats (Rappolovo breeding nursery), aged 14 weeks, weighing 180-190 g. Prior to the study period, animals (n=600) were kept in identical conditions, and received the same diet. For modeling colon cancer, the animals received Azoxymethane (Sigma) in the amount of 10 mg/kg (in 0.9% NaCl) for 12 weeks. In 26 weeks, the abdomen of anesthetized animals was opened, and the presence and size of colon tumors and metastases was visually assessed. Animals bearing neoplasms of more than 3 mm in diameter and having no observed metastases (360 animals) were subjected to total colectomy. In 2 days after surgery, mono- and/or oligonucleotide mixtures were administered either parenterally (via IV) or enterally (with drinking water). Each group consisted of 20 animals. In 8 weeks, surviving animals were sacrificed (animals were randomized into groups with 10 surviving animals per group), and the recurrence rates and presence of metastases was evaluated.
Enteral Administration The first control group received no treatment. Test group #1, Test group #2, Test group #3, Test group #4, Test group #5, and Test group #6 received mixtures of mono- and/or oligonucleotides (from 1 to 100,000 mcg/kg/day) prepared with the use of different nucleases, as specified in Table 2, below:
The first control group received no treatment. The second control group received conventional therapy consisting of 5-fluorouracil (5 mg/kg/day). Test group #1, Test group #2, Test group #3, Test group #4, and Test group #5 were administered (from 1 to 100,000 mcg/kg/day for 30 days).

Where [3] appears, read: enteral administration (with drinking water), evaluated in 8 weeks.
Setting [4] is: parenteral administration (via IV), 30 days.

Each structure is given as a SMILES string.

For `CC12CC3CC(C)(C1)CC(N)(C3)C2` [1st control group, Memantine], the “Patients score ADAScog” value in assay [1] (in 30 days) amounted to 37; in assay [1] (in 90 days), 37; in assay [1] (pre-treatment), 41. Further, the “Patients score MMSE” value in assay [1] (in 30 days) was determined as 15; in assay [1] (in 90 days), 16; in assay [1] (pre-treatment) it was 13.
`O=c1[nH]cc(F)c(=O)[nH]1` [2nd control, 5-fluorouracil]: in assay [2] (setting [3]), the “No. of animals in the group with recurrences or metastases” value is on record as 4 and the “No. of animals with metastasis” value is reported as 7. Also, the “No. of surviving animals/Total No. per group” value in assay [2] (enteral administration (with drinking water), in 8 weeks) is on record as 13/20. Also, in assay [2] (setting [4]), the “No. of animals in the group with recurrences or metastases” value stood at 4, the “No. of animals with metastasis” value was determined as 6 and the “No. of surviving animals/Total No. of animals per group” value is recorded as 14/20.

The record behind these values is patent US11248020B2, “Oligonucleotide compositions and methods for treating diseases” (priority 2017, dated 2022).
